Starred links: 1 amine or outer side, 2 acyl side, 3 side chain; linkers in the order of their positions; H or OH if unused. Non-standard residues stand in square brackets, D forms with d. Residues, ends and D or L forms follow the SMILES beside them. Groups on a side chain read outwards from the residue. *: point of attachment. C20 diacid = O=C(O)CCCCCCCCCCCCCCCCCCC(=O)*; C18 diacid = O=C(O)CCCCCCCCCCCCCCCCC(=O)*; γGlu = O=C(O)[C@H](CCC(=O)[*:2])N[*:1]; αMeF = C[C@](N)(Cc1ccccc1)C(=O)O; AEEA = NCCOCCOCC(=O)O; Aib = CC(C)(N)C(=O)O

Here are results for 7 compounds from patent US20250353891A1 (MEDIMMUNE LIMITED, priority 2022, published 2025).

Assay [1] concerns the target human GLP-1 receptor (hGLP-1R) (Homo sapiens, UniProt P43220). Briefly: cAMP production (HTRF) in CHO cells expressing hGLP-1R. Type of assay: cell-based. Details: expressed in transfected cells. To be noted: for EC50: Table 7, peptides modified at position 20, cAMP in CHO hGLP-1R cells, geometric mean, read-out: hGLP-1R EC50; for % Relative Potency Ratio: Table 7, % GLP-1R activity relative to GLP-1 / % GlucR activity relative to glucagon. The essentials: (§1)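 Potency values represent EC50 from 4-parameter logistic curves of HTRF % Delta F signal. Receptor-expressing CHO cells (hGCGR 2×10^5 cells/mL, hGLP-1R 1×10^5 cells/mL) were exposed for 30 min at room temperature before two-step cAMP detection.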
(In general: cAMP levels reflect the balance of adenylyl cyclase and phosphodiesterase activity.)

The target of assay [2] is human glucagon receptor (hGCGR) (Homo sapiens, UniProt P47871). Briefly: cAMP production (HTRF) in CHO cells expressing hGCGR. To be noted: Table 7, peptides modified at position 20; cAMP in CHO hGCGR cells; geometric mean; read-out: hGluc-R EC50. Set-up: expressed in transfected cells. It counts as cell-based. The essentials:
as §1

Chain of human GLP-1 receptor (hGLP-1R) (P43220 24-463): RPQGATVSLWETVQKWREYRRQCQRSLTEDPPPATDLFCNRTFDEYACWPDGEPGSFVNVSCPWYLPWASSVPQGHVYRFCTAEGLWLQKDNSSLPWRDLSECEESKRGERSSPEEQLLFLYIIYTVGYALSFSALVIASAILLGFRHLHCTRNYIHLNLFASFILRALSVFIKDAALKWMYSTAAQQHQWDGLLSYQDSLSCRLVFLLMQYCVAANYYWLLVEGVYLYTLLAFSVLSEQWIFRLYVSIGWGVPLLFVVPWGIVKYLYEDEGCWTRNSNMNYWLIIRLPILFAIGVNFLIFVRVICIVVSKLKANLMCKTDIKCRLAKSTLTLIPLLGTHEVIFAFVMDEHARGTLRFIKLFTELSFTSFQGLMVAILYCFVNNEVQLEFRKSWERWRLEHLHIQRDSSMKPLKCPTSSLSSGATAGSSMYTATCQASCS
Chain of human glucagon receptor (hGCGR) (P47871 26-477): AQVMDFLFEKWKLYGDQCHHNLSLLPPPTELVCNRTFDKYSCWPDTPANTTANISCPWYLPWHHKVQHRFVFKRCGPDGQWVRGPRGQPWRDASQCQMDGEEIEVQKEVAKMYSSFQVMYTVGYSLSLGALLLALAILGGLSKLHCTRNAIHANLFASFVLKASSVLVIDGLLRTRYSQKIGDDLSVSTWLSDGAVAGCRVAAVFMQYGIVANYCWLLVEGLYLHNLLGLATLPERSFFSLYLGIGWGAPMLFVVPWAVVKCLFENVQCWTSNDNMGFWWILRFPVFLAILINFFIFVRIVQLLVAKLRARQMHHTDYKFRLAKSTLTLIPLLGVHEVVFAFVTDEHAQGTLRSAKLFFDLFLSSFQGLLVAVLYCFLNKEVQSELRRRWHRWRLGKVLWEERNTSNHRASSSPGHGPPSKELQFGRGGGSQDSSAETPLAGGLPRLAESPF

`CC[C@H](C)[C@H](NC(=O)C(C)(C)NC(=O)[C@H](CCC(N)=O)NC(=O)[C@@H](NC(=O)[C@](C)(Cc1ccccc1)NC(=O)[C@H](CC(=O)O)NC(=O)[C@H](CCCCNC(=O)COCCOCCNC(=O)COCCOCCNC(=O)CC[C@H](NC(=O)CC[C@H](NC(=O)CCCCCCCCCCCCCCCCCCC(=O)O)C(=O)O)C(=O)O)NC(=O)[C@H](C)NC(=O)[C@H](C)NC(=O)[C@H](CCCNC(=N)N)NC(=O)[C@H](CO)NC(=O)[C@H](CC(=O)O)NC(=O)[C@H](CC(C)C)NC(=O)[C@](C)(Cc1ccccc1)NC(=O)[C@H](CCCCN)NC(=O)[C@H](CO)NC(=O)[C@@H](NC(=O)[C@H](CC(=O)O)NC(=O)[C@H](CO)NC(=O)[C@@H](NC(=O)[C@](C)(Cc1ccccc1)NC(=O)[C@H](CO)NC(=O)CNC(=O)[C@H](Cc1c[nH]cn1)NC(=O)C(C)(C)NC(=O)[C@@H](N)Cc1c[nH]cn1)[C@@H](C)O)C(C)C)C(C)C)C(=O)N[C@@H](C)C(=O)N[C@@H](CC(N)=O)C(=O)N[C@H](C(=O)NCC(=O)NCC(N)=O)[C@@H](C)O` [Peptide 232] (H-H[Aib]HGS[αMeF]TSDVSK[αMeF]LDSRAAK([AEEA-AEEA-γGlu-γGlu-C20 diacid])D[αMeF]VQ[Aib]IANTGG-NH2; N-terminus assumed): in assay [1], the EC50 (commonly the concentration needed to bring the measured effect to its halfway point) is 0.11 nM and the “% Relative Potency Ratio” value was 18.4. Moreover, in assay [2], the EC50 came out at 1.02 nM.

Turning to `CC[C@H](C)[C@H](NC(=O)C(C)(C)NC(=O)[C@H](CCC(=O)O)NC(=O)[C@@H](NC(=O)[C@](C)(Cc1ccccc1)NC(=O)[C@H](CC(=O)O)NC(=O)[C@H](CCCCNC(=O)COCCOCCNC(=O)COCCOCCNC(=O)CC[C@H](NC(=O)CC[C@H](NC(=O)CCCCCCCCCCCCCCCCCCC(=O)O)C(=O)O)C(=O)O)NC(=O)[C@H](C)NC(=O)[C@H](C)NC(=O)[C@H](CCCNC(=N)N)NC(=O)[C@H](CO)NC(=O)[C@H](CC(=O)O)NC(=O)[C@H](CC(C)C)NC(=O)[C@](C)(Cc1ccccc1)NC(=O)[C@H](CCCCN)NC(=O)[C@H](CO)NC(=O)[C@@H](NC(=O)[C@H](CC(=O)O)NC(=O)[C@H](CO)NC(=O)[C@@H](NC(=O)[C@](C)(Cc1ccccc1)NC(=O)[C@H](CO)NC(=O)CNC(=O)[C@H](Cc1c[nH]cn1)NC(=O)C(C)(C)NC(=O)[C@@H](N)Cc1c[nH]cn1)[C@@H](C)O)C(C)C)C(C)C)C(=O)N[C@@H](C)C(=O)N[C@@H](CC(N)=O)C(=O)N[C@H](C(N)=O)[C@@H](C)O` [Peptide 233] (H-H[Aib]HGS[αMeF]TSDVSK[αMeF]LDSRAAK([AEEA-AEEA-γGlu-γGlu-C20 diacid])D[αMeF]VE[Aib]IANT-NH2; N-terminus assumed), in assay [1], the EC50 turned out to be 0.44 nM and the “% Relative Potency Ratio” value was determined as 1.8. The EC50 in assay [2] was determined as 0.407 nM.

As for `CC[C@H](C)[C@H](NC(=O)C(C)(C)NC(=O)[C@H](CCC(N)=O)NC(=O)[C@@H](NC(=O)[C@H](Cc1ccccc1)NC(=O)[C@H](CC(=O)O)NC(=O)[C@H](CCCCNC(=O)COCCOCCNC(=O)COCCOCCNC(=O)CC[C@H](NC(=O)CC[C@H](NC(=O)CCCCCCCCCCCCCCCCCCC(=O)O)C(=O)O)C(=O)O)NC(=O)[C@H](C)NC(=O)[C@H](C)NC(=O)[C@H](CCCNC(=N)N)NC(=O)[C@H](CO)NC(=O)[C@H](CC(=O)O)NC(=O)[C@H](CC(C)C)NC(=O)[C@](C)(Cc1ccccc1)NC(=O)[C@H](CCCCN)NC(=O)[C@H](CO)NC(=O)[C@@H](NC(=O)[C@H](CC(=O)O)NC(=O)[C@H](CO)NC(=O)[C@@H](NC(=O)[C@](C)(Cc1ccccc1)NC(=O)[C@H](CO)NC(=O)CNC(=O)[C@H](Cc1c[nH]cn1)NC(=O)C(C)(C)NC(=O)[C@@H](N)Cc1c[nH]cn1)[C@@H](C)O)C(C)C)C(C)C)C(=O)N[C@@H](C)C(=O)N[C@@H](CC(N)=O)C(=O)N[C@H](C(=O)NCC(N)=O)[C@@H](C)O` [Peptide 234] (H-H[Aib]HGS[αMeF]TSDVSK[αMeF]LDSRAAK([AEEA-AEEA-γGlu-γGlu-C20 diacid])DFVQ[Aib]IANTG-NH2), in assay [1], the EC50 stood at 0.068 nM and the “% Relative Potency Ratio” value was found to be 37.4. For the same compound, the EC50 in assay [2] came to 1.29 nM.

As to `CC[C@H](C)[C@H](NC(=O)C(C)(C)NC(=O)[C@H](CCC(N)=O)NC(=O)[C@@H](NC(=O)[C@H](Cc1ccccc1)NC(=O)[C@H](CC(=O)O)NC(=O)[C@H](CCCCNC(=O)COCCOCCNC(=O)COCCOCCNC(=O)CC[C@H](NC(=O)CC[C@H](NC(=O)CCCCCCCCCCCCCCCCC(=O)O)C(=O)O)C(=O)O)NC(=O)[C@H](C)NC(=O)[C@H](C)NC(=O)[C@H](CCCNC(=N)N)NC(=O)[C@H](CO)NC(=O)[C@H](CC(=O)O)NC(=O)[C@H](CC(C)C)NC(=O)[C@](C)(Cc1ccccc1)NC(=O)[C@H](CCCCN)NC(=O)[C@H](CO)NC(=O)[C@@H](NC(=O)[C@H](CC(=O)O)NC(=O)[C@H](CO)NC(=O)[C@@H](NC(=O)[C@](C)(Cc1ccccc1)NC(=O)[C@H](CO)NC(=O)CNC(=O)[C@H](Cc1c[nH]cn1)NC(=O)C(C)(C)NC(=O)[C@@H](N)Cc1c[nH]cn1)[C@@H](C)O)C(C)C)C(C)C)C(=O)N[C@@H](C)C(=O)N[C@@H](CC(N)=O)C(=O)N[C@H](C(=O)NCC(N)=O)[C@@H](C)O` [Peptide 236] (H-H[Aib]HGS[αMeF]TSDVSK[αMeF]LDSRAAK([AEEA-AEEA-γGlu-γGlu-C18 diacid])DFVQ[Aib]IANTG-NH2), in assay [1], the EC50 was 0.0221 nM and the “% Relative Potency Ratio” value was found to be 19.2. Moreover, the EC50 in assay [2] was found to be 0.215 nM.

Regarding `CC[C@H](C)[C@H](NC(=O)C(C)(C)NC(=O)[C@H](CCC(N)=O)NC(=O)[C@@H](NC(=O)[C@H](Cc1ccccc1)NC(=O)[C@H](CC(=O)O)NC(=O)[C@H](CCCCNC(=O)COCCOCCNC(=O)COCCOCCNC(=O)CC[C@H](NC(=O)CC[C@H](NC(=O)CCCCCCCCCCCCCCCCC(=O)O)C(=O)O)C(=O)O)NC(=O)[C@H](C)NC(=O)[C@H](C)NC(=O)[C@H](CCCNC(=N)N)NC(=O)[C@H](CO)NC(=O)[C@H](CC(=O)O)NC(=O)[C@H](CC(C)C)NC(=O)[C@](C)(Cc1ccccc1)NC(=O)[C@H](CCCCN)NC(=O)[C@H](CO)NC(=O)[C@@H](NC(=O)[C@H](CC(=O)O)NC(=O)[C@H](CO)NC(=O)[C@@H](NC(=O)[C@](C)(Cc1ccccc1)NC(=O)[C@H](CO)NC(=O)CNC(=O)[C@H](Cc1c[nH]cn1)NC(=O)C(C)(C)NC(=O)[C@@H](N)Cc1c[nH]cn1)[C@@H](C)O)C(C)C)C(C)C)C(=O)N[C@@H](C)C(=O)N[C@@H](CC(N)=O)C(=O)N[C@H](C(=O)NCC(=O)NCC(N)=O)[C@@H](C)O` [Peptide 237] (H-H[Aib]HGS[αMeF]TSDVSK[αMeF]LDSRAAK([AEEA-AEEA-γGlu-γGlu-C18 diacid])DFVQ[Aib]IANTGG-NH2; N-terminus assumed), the concentration giving a half-maximal response (EC50) in assay [1] worked out at 0.0267 nM; in assay [2], 0.299 nM. In addition, the “% Relative Potency Ratio” value in assay [1] amounted to 22.1.

Take `CC[C@H](C)[C@H](NC(=O)[C@H](Cc1c[nH]c2ccccc12)NC(=O)[C@H](CCC(N)=O)NC(=O)[C@@H](NC(=O)[C@](C)(Cc1ccccc1)NC(=O)[C@H](CC(=O)O)NC(=O)[C@H](CCCCNC(=O)COCCOCCNC(=O)COCCOCCNC(=O)CC[C@H](NC(=O)CC[C@H](NC(=O)CCCCCCCCCCCCCCCCCCC(=O)O)C(=O)O)C(=O)O)NC(=O)[C@H](C)NC(=O)[C@H](C)NC(=O)[C@H](CCCNC(=N)N)NC(=O)[C@H](CO)NC(=O)[C@H](CC(=O)O)NC(=O)[C@H](CC(C)C)NC(=O)[C@](C)(Cc1ccccc1)NC(=O)[C@H](CCCCN)NC(=O)[C@H](CO)NC(=O)[C@@H](NC(=O)[C@H](CC(=O)O)NC(=O)[C@H](CO)NC(=O)[C@@H](NC(=O)[C@](C)(Cc1ccccc1)NC(=O)[C@H](CO)NC(=O)CNC(=O)[C@H](Cc1c[nH]cn1)NC(=O)C(C)(C)NC(=O)[C@@H](N)Cc1c[nH]cn1)[C@@H](C)O)C(C)C)C(C)C)C(=O)N[C@@H](C)C(=O)N[C@@H](CC(N)=O)C(=O)N[C@H](C(=O)NCC(N)=O)[C@@H](C)O` [Peptide 238] (H-H[Aib]HGS[αMeF]TSDVSK[αMeF]LDSRAAK([AEEA-AEEA-γGlu-γGlu-C20 diacid])D[αMeF]VQWIANTG-NH2): in assay [1], the EC50 is 0.155 nM and the “% Relative Potency Ratio” value was 12.7. For the same compound, the EC50 in assay [2] amounted to 0.99 nM.

Regarding `CC[C@H](C)[C@H](NC(=O)[C@H](Cc1c[nH]c2ccccc12)NC(=O)[C@H](CCC(N)=O)NC(=O)[C@@H](NC(=O)[C@](C)(Cc1ccccc1)NC(=O)[C@H](CC(=O)O)NC(=O)[C@H](CCCCNC(=O)COCCOCCNC(=O)COCCOCCNC(=O)CC[C@H](NC(=O)CC[C@H](NC(=O)CCCCCCCCCCCCCCCCCCC(=O)O)C(=O)O)C(=O)O)NC(=O)[C@H](C)NC(=O)[C@H](C)NC(=O)[C@H](CCCNC(=N)N)NC(=O)[C@H](CO)NC(=O)[C@H](CC(=O)O)NC(=O)[C@H](CC(C)C)NC(=O)[C@](C)(Cc1ccccc1)NC(=O)[C@H](CCCCN)NC(=O)[C@H](CO)NC(=O)[C@@H](NC(=O)[C@H](CC(=O)O)NC(=O)[C@H](CO)NC(=O)[C@@H](NC(=O)[C@](C)(Cc1ccccc1)NC(=O)[C@H](CO)NC(=O)CNC(=O)[C@H](Cc1c[nH]cn1)NC(=O)C(C)(C)NC(=O)[C@@H](N)Cc1c[nH]cn1)[C@@H](C)O)C(C)C)C(C)C)C(=O)N[C@@H](C)C(=O)N[C@@H](CC(N)=O)C(=O)N[C@H](C(=O)NCC(=O)NCC(N)=O)[C@@H](C)O` [Peptide 239] (H-H[Aib]HGS[αMeF]TSDVSK[αMeF]LDSRAAK([AEEA-AEEA-γGlu-γGlu-C20 diacid])D[αMeF]VQWIANTGG-NH2), in assay [1], the EC50 stood at 0.105 nM and the “% Relative Potency Ratio” value was 13.2. Also, the EC50 in assay [2] was 0.705 nM.
